Measurements: ChEMBL document CHEMBL5550128, “Discovery and preclinical evaluations of TQB3616, a novel CDK4-biased inhibitor” (Bioorg Med Chem Lett, 2024)

Assays:
[1] = test system: MCF7; experiment: Antiproliferative activity against Rb-proficient human MCF7 cells assessed as inhibition of cellular viability; assay type: functional, cell-based
[2] = test system: NCI-H1299; experiment: Inhibition of cell proliferation in human NCI-H1299 cells at 0.3 uM incubated for 72 hrs by Cell Titer Glo assay relative to control; assay type: functional
[3] = test system: NCI-H520; experiment: Inhibition of cell proliferation in human NCI-H520 cells at 0.3 uM incubated for 72 hrs by Cell Titer Glo assay relative to control; assay type: functional
[4] = test system: BXPC-3; experiment: Inhibition of cell proliferation in human BXPC-3 cells at 0.3 uM incubated for 72 hrs by Cell Titer Glo assay relative to control; assay type: functional
[5] = test system: OVCAR-3; experiment: Inhibition of cell proliferation in human OVCAR-3 cells at 0.3 uM incubated for 72 hrs by Cell Titer Glo assay relative to control; assay type: functional
[6] = test system: SW-620; experiment: Inhibition of cell proliferation in human SW620 cells at 0.3 uM incubated for 72 hrs by Cell Titer Glo assay relative to control; assay type: functional
[7] = test system: CAL-27; experiment: Inhibition of cell proliferation in human CAL-27 cells at 0.3 uM incubated for 72 hrs by Cell Titer Glo assay relative to control; assay type: functional
[8] = test system: DU-145; experiment: Inhibition of cell proliferation in human DU-145 cells at 0.3 uM incubated for 72 hrs by Cell Titer Glo assay relative to control; assay type: functional
[9] = test system: A673; experiment: Inhibition of cell proliferation in human A673 cells at 0.3 uM incubated for 72 hrs by Cell Titer Glo assay relative to control; assay type: functional
[10] = test system: MV4-11; experiment: Inhibition of cell proliferation in human MV4-11 cells at 0.3 uM incubated for 72 hrs by Cell Titer Glo assay relative to control; assay type: functional
[11] = Inhibition of cell proliferation in human MINO cells at 0.3 uM incubated for 72 hrs by Cell Titer Glo assay relative to control; assay type: functional
[12] = test system: MCF7; experiment: Induction of cell cycle arrest at S phase in Rb-proficient human MCF7 cells at 0.16 uM (reference value: 19.19 %); assay type: functional
[13] = test system: MCF7; experiment: Induction of cell cycle arrest at G2 phase in Rb-proficient human MCF7 cells at 0.16 uM (reference value: 24.74 %); assay type: functional
[14] = test system: MDA-MB-436; experiment: Induction of cell cycle arrest at S phase in Rb-deficient human MDA-MB-436 cells at 0.16 uM (reference value: 22.47 %); assay type: functional
[15] = target: T1, Retinoblastoma-associated protein (Homo sapiens) (UniProt P06400); experiment: Inhibition of Rb phosphorylation in human MCF7 cells incubated for 24 to 48 hrs by In-cell western assay; assay type: cell-based; details: dose 100-500 nM, time 24-48 hrs
T1 sequence (whole entry): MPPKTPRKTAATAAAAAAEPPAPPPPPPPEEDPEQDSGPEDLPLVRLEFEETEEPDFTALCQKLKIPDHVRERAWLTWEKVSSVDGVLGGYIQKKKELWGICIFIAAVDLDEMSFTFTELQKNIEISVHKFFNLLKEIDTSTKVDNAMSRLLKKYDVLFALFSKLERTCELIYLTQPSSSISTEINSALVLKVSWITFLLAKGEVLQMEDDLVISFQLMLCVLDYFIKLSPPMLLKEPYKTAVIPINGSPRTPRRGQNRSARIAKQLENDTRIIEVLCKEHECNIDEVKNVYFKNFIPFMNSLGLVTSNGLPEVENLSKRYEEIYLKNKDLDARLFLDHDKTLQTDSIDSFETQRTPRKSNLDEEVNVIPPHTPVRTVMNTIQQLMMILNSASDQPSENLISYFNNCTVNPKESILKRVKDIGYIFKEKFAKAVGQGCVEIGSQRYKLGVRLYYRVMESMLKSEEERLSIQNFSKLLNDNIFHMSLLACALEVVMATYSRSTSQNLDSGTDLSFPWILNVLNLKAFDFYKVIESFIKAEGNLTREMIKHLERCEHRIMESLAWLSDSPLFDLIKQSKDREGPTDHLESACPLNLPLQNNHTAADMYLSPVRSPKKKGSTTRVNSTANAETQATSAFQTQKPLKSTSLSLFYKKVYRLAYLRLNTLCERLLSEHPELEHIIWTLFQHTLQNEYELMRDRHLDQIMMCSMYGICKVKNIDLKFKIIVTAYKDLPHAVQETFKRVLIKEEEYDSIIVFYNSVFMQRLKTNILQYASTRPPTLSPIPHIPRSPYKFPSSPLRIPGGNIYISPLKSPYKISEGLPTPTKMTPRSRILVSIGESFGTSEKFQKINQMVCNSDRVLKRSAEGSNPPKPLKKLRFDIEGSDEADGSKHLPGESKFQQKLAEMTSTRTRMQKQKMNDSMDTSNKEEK

[16] = target: T1, Retinoblastoma-associated protein (Homo sapiens); experiment: Inhibition of Rb phosphorylation in human MCF7 cells at 100 to 500 nM by In-cell western assay; assay type: cell-based; details: dose 100-500 nM, time 24-48 hrs, TDE = time-dependent effect
[17] = Aqueous solubility of compound at pH <=4.5; assay type: physicochemical
[18] = Permeability across apical to basal side in human Caco-2 cells; assay type: ADME, cell-based; details: read-out: permeability
[19] = Plasma protein in dog assessed as unbound fraction; assay type: ADME, cell-free, Canis lupus familiaris
[20] = Plasma protein in human assessed as unbound fraction; assay type: ADME, cell-free
[21] = target: Cytochrome P450 3A4 (Homo sapiens, UniProt P08684); experiment: Inhibition of CYP3A4 (unknown origin) using midazolam as substrate; assay type: ADME
[22] = Intrinsic clearance in CD-1 mouse at 0.5 mg/kg, iv; assay type: ADME, organism-based; details: in vivo
[23] = Volume of distribution at steady state in CD-1 mouse at 0.5 mg/kg, iv; assay type: ADME, organism-based; details: in vivo, read-out: Vdss
[24] = Cmax in CD-1 mouse at 2 mg/kg, po; assay type: ADME, organism-based; details: in vivo
[25] = Oral bioavailability in CD-1 mouse at 2 mg/kg; assay type: ADME, organism-based; details: in vivo
[26] = Intrinsic clearance in Sprague-Dawley rat at 1 mg/kg, iv; assay type: ADME, organism-based; details: in vivo
[27] = Half life in Sprague-Dawley rat at 1 mg/kg, iv; assay type: ADME, organism-based; details: in vivo
[28] = Cmax in Sprague-Dawley rat at 6 mg/kg, po; assay type: ADME, organism-based; details: in vivo
[29] = AUC (0 to last) in Sprague-Dawley rat at 6 mg/kg, po; assay type: ADME, organism-based; details: in vivo
[30] = Oral bioavailability in Sprague-Dawley rat at 6 mg/kg; assay type: ADME, organism-based; details: in vivo
[31] = Volume of distribution at steady state in Beagle dog at 0.6 mg/kg, iv; assay type: ADME, organism-based, Canis lupus familiaris; details: in vivo, read-out: Vdss
[32] = Half life in Beagle dog at 0.6 mg/kg, iv; assay type: ADME, organism-based, Canis lupus familiaris; details: in vivo
[33] = Oral bioavailability in Beagle dog at 2 mg/kg; assay type: ADME, organism-based, Canis lupus familiaris; details: in vivo
[34] = test system: MCF7; experiment: Antitumor activity against human MCF7 cells xenografted in mouse at 5 mg/kg, po qd for 3 weeks relative to control; assay type: functional; details: MCF7, 504 h, read-out: TGI
[35] = Toxicity in mouse xenografted with human PDX ES-06-0130 cells assessed as body weight change at 40 mg/kg, po qd for 3 weeks relative to control; assay type: organism-based; details: in vivo, 504 h

Sequence of Cytochrome P450 3A4 (P08684 whole entry): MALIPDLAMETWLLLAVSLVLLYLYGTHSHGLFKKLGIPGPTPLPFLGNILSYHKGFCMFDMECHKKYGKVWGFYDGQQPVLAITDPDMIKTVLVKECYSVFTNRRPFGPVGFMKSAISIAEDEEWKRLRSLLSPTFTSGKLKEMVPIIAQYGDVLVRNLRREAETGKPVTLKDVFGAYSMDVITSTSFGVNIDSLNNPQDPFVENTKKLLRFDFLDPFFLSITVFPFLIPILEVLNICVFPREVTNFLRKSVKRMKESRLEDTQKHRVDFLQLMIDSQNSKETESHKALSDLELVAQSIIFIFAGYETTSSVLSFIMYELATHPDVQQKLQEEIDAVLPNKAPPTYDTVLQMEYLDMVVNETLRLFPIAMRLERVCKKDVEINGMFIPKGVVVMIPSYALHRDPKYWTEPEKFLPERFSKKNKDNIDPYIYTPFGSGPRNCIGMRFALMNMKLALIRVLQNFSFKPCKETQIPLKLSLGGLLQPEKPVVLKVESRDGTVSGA

CC(C)c1c2cc(-c3nc(Nc4ccc(N5CCNCC5)cn4)ncc3F)ccc2nn1C [CULMERCICLIB]
IC50 [1]: 32.1 nM | inhibition at 0.3 µM [2]: 57.5% | inhibition at 0.3 µM [3]: 24% | inhibition at 0.3 µM [4]: 23.1% | inhibition at 0.3 µM [5]: 23% | inhibition at 0.3 µM [6]: 55.1% | inhibition at 0.3 µM [7]: 0.6% | inhibition at 0.3 µM [8]: 27.3% | inhibition at 0.3 µM [9]: -4.1% | inhibition at 0.3 µM [10]: 71.1% | inhibition at 0.3 µM [11]: 67% | Activity [12]: 5.91% | Activity [13]: 24.73% | Activity [14]: 26.1% | inhibition [15]: Dose-Dependent Effect | inhibition [16]: Tde | solubility [17]: > 2000 µg/mL | Papp A→B [18]: 0.4 ×10⁻⁶ cm/s | fraction unbound [19]: 0.051 | fraction unbound [20]: 0.08 | IC50 [21]: > 50000 nM | CL [22]: 31.3 mL/min/kg | Vd [23]: 5 L/kg | Cmax [24]: 248 nM | bioavailability [25]: 65% | CL [26]: 30.4 mL/min/kg | half-life [27]: 4.2 h | Cmax [28]: 415 nM | AUC(0-t) [29]: 5.88 µM·h | bioavailability [30]: 74.9% | Vd [31]: 17.1 L/kg | half-life [32]: 7.8 h | bioavailability [33]: 56% | inhibition in vivo at 5 mg/kg [34]: 68% | Activity [35]: < 10%
